Assays:
Assay type in all cases: in vivo
[1] = tested on: ryegrass, Italian (Italian ryegrass, Lolium multiflorum); assay: Test C greenhouse herbicide test, pre- and postemergence
From the text: (§1) Seeds of plant species selected from blackgrass (Alopecurus myosuroides), ryegrass, Italian (Italian ryegrass, Lolium multiflorum), wheat (winter wheat, Triticum aestivum), galium (catchweed bedstraw, Galium aparine), corn (Zea mays), large crabgrass, large (large crabgrass, Digitaria sanguinalis), foxtail, giant (giant foxtail, Setaria faberii), johnsongrass (Sorghum halepense), lambsquarters (Chenopodium album), morningglory (Ipomoea coccinea), nutsedge, yellow (yellow nutsedge, Cyperus esculentus), pigweed (Amaranthus retroflexus), ragweed (common ragweed, Ambrosia elatior), soybean (Glycine max), barnyardgrass (Echinochloa crus-galli), oilseed rape (Brassica napus), waterhemp (common waterhemp, Amaranthus rudis), and velvetleaf (Abutilon theophrasti) were planted into a blend of loam soil and sand and treated preemergence with test chemicals formulated in a non-phytotoxic solvent mixture which included a surfactant.
(§2) At the same time, plants selected from these crop and weed species and also chickweed (common chickweed, Stellaria media), kochia (Kochia scoparia), and oat, wild (wild oat, Avena fatua), were planted in pots containing Redi-Earth® planting medium (Scotts Company, 14111 Scottslawn Road, Marysville, Ohio 43041) comprising spaghnum peat moss, vermiculite, wetting agent and starter nutrients and treated with postemergence applications of test chemicals formulated in the same manner. Plants ranged in height from 2 to 18 cm (1- to 4-leaf stage) for postemergence treatments. Treated plants and controls were maintained in a greenhouse for 13 to 15 d, after which time all species were compared to controls and visually evaluated. Plant response ratings, summarized in Table C, are based on a scale of 0 to 100 where 0 is no effect and 100 is complete control. A dash (-) response means no test result.

[2] = tested on: morningglory (Ipomoea coccinea); assay: as above
From the text: as §1, §2

[3] = tested on: ragweed (common ragweed, Ambrosia elatior); assay: as above
From the text: as §1, §2

soybean (Glycine max) = assay: as above
From the text: as §1, §2

[4] = tested on: waterhemp (common waterhemp, Amaranthus rudis); assay: as above
From the text: as §1, §2

[5] = tested on: oilseed rape (Brassica napus); assay: as above
From the text: as §1, §2

[6] = tested on: blackgrass (Alopecurus myosuroides); assay: as above
From the text: as §1, §2

[7] = tested on: pigweed (Amaranthus retroflexus); assay: as above
From the text: as §1, §2

[8] = tested on: crabgrass, large (large crabgrass, Digitaria sanguinalis); assay: as above
From the text: as §1, §2

[9] = tested on: lambsquarters (Chenopodium album); assay: as above
From the text: as §1, §2

corn (Zea mays) = assay: as above
From the text: as §1, §2

[10] = tested on: velvetleaf (Abutilon theophrasti); assay: as above
From the text: as §1, §2

[11] = tested on: foxtail, giant (giant foxtail, Setaria faberii); assay: as above
From the text: as §1, §2

[12] = tested on: johnsongrass (Sorghum halepense); assay: as above
From the text: as §1, §2

[13] = tested on: oat, wild (wild oat, Avena fatua); assay: Test C greenhouse herbicide test, postemergence
Method in brief: (§3)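 Seedlings are raised in pots of peat moss–vermiculite medium with starter nutrients, then receive postemergence test chemical at the 1- to 4-leaf stage. They are kept in the greenhouse 13 to 15 d and scored visually versus controls, 0 meaning no effect and 100 complete control.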

kochia (Kochia scoparia) = assay: Test C greenhouse herbicide test, postemergence
Method in brief: as §3

[14] = Postemergence, 31 g ai/ha, 0 to 100 scale (0 no effect, 100 complete control)
[15] = Postemergence, 125 g ai/ha, scale 0 to 100, 0 is no effect, 100 is complete control
[16] = Postemergence, 250 g ai/ha, scale 0 to 100, 0 no effect, 100 complete control, 13 to 15 d
[17] = postemergence, 62 g ai/ha, scale 0 to 100, 0 no effect, 100 complete control

With Cc1ccc(-c2c(O)c(Br)nn(C)c2=O)c2ccccc12 [Compound 52] the “Ryegrass, Italian plant response rating” value [1, 14] was 10, the “Plant response rating, Ryegrass, Italian” value [1, 15] was 45 and the “Plant response rating, Ryegrass, Italian” value [1, 16] was 60. For the same compound, the “Ryegrass, Italian plant response rating” value [1, 17] was 40, the “Morningglory plant response rating” value [2, 14] was 98 and the “Plant response rating, Morningglory” value [2, 15] was 100. The “Plant response rating, Morningglory” value [2, 16] was 100, the “Morningglory plant response rating” value [2, 17] was 100 and the “Ragweed plant response rating” value [3, 14] was 55. For the same compound, the “Plant response rating, Ragweed” value [3, 15] was 80, the “Plant response rating, Ragweed” value [3, 16] was 98 and the “Ragweed plant response rating” value [3, 17] was 65. The “Soybean plant response rating” value (soybean (Glycine max); [14]) was 0, the “Plant response rating, Soybean” value (soybean (Glycine max); [15]) was 0 and the “Plant response rating, Soybean” value (soybean (Glycine max); [16]) was 0. The “Soybean plant response rating” value (soybean (Glycine max); [17]) was 0, the “Waterhemp plant response rating” value [4, 14] was 10 and the “Plant response rating, Waterhemp” value [4, 15] was 10. For the same compound, the “Plant response rating, Waterhemp” value [4, 16] was 55, the “Waterhemp plant response rating” value [4, 17] was 10 and the “Oilseed Rape plant response rating” value [5, 14] was 0. The “Plant response rating, Oilseed Rape” value [5, 15] was 0, the “Plant response rating, Oilseed Rape” value [5, 16] was 0 and the “Oilseed Rape plant response rating” value [5, 17] was 0. For the same compound, the “Blackgrass plant response rating” value [6, 14] was 0, the “Plant response rating, Blackgrass” value [6, 15] was 30 and the “Plant response rating, Blackgrass” value [6, 16] was 30. The “Blackgrass plant response rating” value [6, 17] was 10, the “Pigweed plant response rating” value [7, 14] was 30 and the “Plant response rating, Pigweed” value [7, 15] was 10. For the same compound, the “Plant response rating, Pigweed” value [7, 16] was 55, the “Pigweed plant response rating” value [7, 17] was 5 and the “Crabgrass, Large plant response rating” value [8, 14] was 0. The “Plant response rating, Crabgrass, Large” value [8, 15] was 5, the “Plant response rating, Crabgrass, Large” value [8, 16] was 10 and the “Crabgrass, Large plant response rating” value [8, 17] was 0. The “Lambsquarters plant response rating” value [9, 14] was 55, the “Plant response rating, Lambsquarters” value [9, 15] was 75 and the “Plant response rating, Lambsquarters” value [9, 16] was 98. For the same compound, the “Lambsquarters plant response rating” value [9, 17] was 60, the “Corn plant response rating” value (corn (Zea mays); [14]) was 0 and the “Plant response rating, Corn” value (corn (Zea mays); [15]) was 0. For the same compound, the “Plant response rating, Corn” value (corn (Zea mays); [16]) was 0, the “Corn plant response rating” value (corn (Zea mays); [17]) was 0 and the “Velvetleaf plant response rating” value [10, 14] was 5. The “Plant response rating, Velvetleaf” value [10, 15] was 55, the “Plant response rating, Velvetleaf” value [10, 16] was 100 and the “Velvetleaf plant response rating” value [10, 17] was 25. The “Foxtail, Giant plant response rating” value [11, 14] was 0, the “Plant response rating, Foxtail, Giant” value [11, 15] was 10 and the “Plant response rating, Foxtail, Giant” value [11, 16] was 35. For the same compound, the “Foxtail, Giant plant response rating” value [11, 17] was 5, the “Johnsongrass plant response rating” value [12, 14] was 5 and the “Plant response rating, Johnsongrass” value [12, 15] was 10. For the same compound, the “Plant response rating, Johnsongrass” value [12, 16] was 15, the “Johnsongrass plant response rating” value [12, 17] was 10 and the “Oat, Wild plant response rating” value [13, 14] was 0. The “Plant response rating, Oat, Wild” value [13, 15] was 0, the “Plant response rating, Oat, Wild” value [13, 16] was 0 and the “Oat, Wild plant response rating” value [13, 17] was 0. For the same compound, the “Kochia plant response rating” value (kochia (Kochia scoparia); [14]) was 0, the “Plant response rating, Kochia” value (kochia (Kochia scoparia); [15]) was 5 and the “Plant response rating, Kochia” value (kochia (Kochia scoparia); [16]) was 70. For the same compound, the “Kochia plant response rating” value (kochia (Kochia scoparia); [17]) was 0.
